Reference: ChEMBL document CHEMBL1201862, “PubChem BioAssay data set” (2004)
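Test compounds were applied to cells in 96-well plates for 48 hours at 5 doses. GI50 marks 50% less growth.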 Activity calls are given as the source filed them. No stated cut-off is given here; in the data, active = GI50 up to about 1.1 µM and inactive = higher.

Tests used:
Assay in all cases: NCI tumour cell line growth inhibition, 48 h
[1] = system: M19-MEL
[2] = system: DLD-1
[3] = system: KM-20L2
[4] = system: XF498
[5] = system: DMS-273
[6] = system: SNB-78
[7] = system: HOP-18
[8] = system: DMS-114
[9] = system: RXF 631

SMILES	GI50 [1]	GI50 [2]	GI50 [3]	GI50 [4]	GI50 [5]	GI50 [6]	GI50 [7]	GI50 [8]	GI50 [9]
COC(=O)c1ccc(NCc2cc(O)ccc2O)cc1	16.7 µM (inactive)	18.1 µM (inactive)	28.4 µM (inactive)	2.96 µM (inactive)	24.7 µM (inactive)	15.2 µM (inactive)	14.2 µM (inactive)	3.52 µM (inactive)	
Cn1c2c(c3ccccc31)CCN(CCCCN1CCc3c(n(C)c4ccccc34)C1=O)C2	> 100 µM (inactive)	> 100 µM (inactive)	> 100 µM (inactive)	> 100 µM (inactive)	> 100 µM (inactive)	> 100 µM (inactive)	> 100 µM (inactive)	73.1 µM (inactive)	> 100 µM (inactive)
O=C1C=CC(=O)c2c1c1c(c3c2C2c4ccccc4C3c3ccccc32)C2c3ccccc3C1c1ccccc12	1.98 µM (inactive)	0.982 µM (active)	4.46 µM (inactive)	1.75 µM (inactive)	2.11 µM (inactive)	1.81 µM (inactive)		1.95 µM (inactive)	
COc1ccc2nccc(C3OC(=O)N4CCC(=O)CC34)c2c1 (stereo not drawn)	> 100 µM (inactive)		> 100 µM (inactive)	> 100 µM (inactive)	> 10 µM (inactive)	> 100 µM (inactive)			> 100 µM (inactive)
CC(=O)OC1CCn2nnc(COC(=O)NC(C)C)c21 (stereo not drawn)		> 100 µM (inactive)	> 100 µM (inactive)	> 100 µM (inactive)		> 100 µM (inactive)	> 100 µM (inactive)	> 100 µM (inactive)	> 100 µM (inactive)
CC[P+](C)(C)CC	> 100 µM (inactive)	> 100 µM (inactive)	> 100 µM (inactive)		> 100 µM (inactive)	> 100 µM (inactive)	> 100 µM (inactive)	> 100 µM (inactive)	> 100 µM (inactive)
C=C1CC2OC2(C(=O)O[C@H]2CCC3[C@@H]4CCC5=CC(=O)CC[C@]5(C)C4CC[C@@]32C)C1=O (stereo partly drawn)	7.57 µM (inactive)	2.64 µM (inactive)	7.57 µM (inactive)	5.19 µM (inactive)	4.45 µM (inactive)	8.26 µM (inactive)	5.83 µM (inactive)	5.2 µM (inactive)	
CC1=C(C(=O)Nc2ccccc2C)C(/C=C/c2ccccc2)C(C(=O)Nc2ccccc2C)=C(C)N1	> 100 µM (inactive)	> 100 µM (inactive)	> 100 µM (inactive)	> 100 µM (inactive)	> 100 µM (inactive)	> 100 µM (inactive)	> 100 µM (inactive)		> 100 µM (inactive)
Nc1nc(CCC(=O)Nc2cccc(C(F)(F)F)c2)cc(-c2cccc3ccccc23)n1	> 100 µM (inactive)	> 100 µM (inactive)	> 100 µM (inactive)	> 100 µM (inactive)	> 100 µM (inactive)	> 100 µM (inactive)	> 100 µM (inactive)	> 100 µM (inactive)	> 100 µM (inactive)
CC(C)=C1CCC(CN2CCCC2)C1=O (stereo not drawn)	20.6 µM (inactive)	17.3 µM (inactive)	89.7 µM (inactive)	19.1 µM (inactive)	39.4 µM (inactive)	> 100 µM (inactive)	17.5 µM (inactive)	20.4 µM (inactive)	> 100 µM (inactive)
O=C(/C=C\c1ccc(Cl)c(Cl)c1)c1ccc(Cl)cc1Cl	18.7 µM (inactive)	5.41 µM (inactive)	2.69 µM (inactive)		10.4 µM (inactive)	> 10 µM (inactive)	> 10 µM (inactive)	> 10 µM (inactive)	35.9 µM (inactive)
C[C@H](C(=O)C12CC3CC(CC(C3)C1)C2)[C@H](O)c1ccccc1		45.5 µM (inactive)	20.8 µM (inactive)	26 µM (inactive)		31.6 µM (inactive)	98.9 µM (inactive)		31.2 µM (inactive)
Cc1cn(C2CC(O)C(CO)O2)c(=O)n2nnnc12 (stereo not drawn)	> 100 µM (inactive)	> 100 µM (inactive)			> 100 µM (inactive)	> 100 µM (inactive)	> 100 µM (inactive)	> 100 µM (inactive)	> 100 µM (inactive)
COc1cc(C2C(Cl)C(=O)N2NC(=O)c2ccc(N)cc2)cc(Br)c1O (stereo not drawn)	17.9 µM (inactive)	19 µM (inactive)	17.7 µM (inactive)	17 µM (inactive)	18 µM (inactive)	17.5 µM (inactive)		6.35 µM (inactive)	
O=C(O)COc1ccc2c3c1C(=O)CCC3CO2 (stereo not drawn)	> 100 µM (inactive)	> 100 µM (inactive)	> 100 µM (inactive)	> 100 µM (inactive)	> 100 µM (inactive)	> 100 µM (inactive)	> 100 µM (inactive)	> 100 µM (inactive)	
CC(C)(C)N1CC2(CCCCC2)C1=O	> 100 µM (inactive)	> 100 µM (inactive)	> 100 µM (inactive)		> 100 µM (inactive)	> 100 µM (inactive)	> 100 µM (inactive)	> 100 µM (inactive)	
CN1CCN2c3ccccc3CC(C#N)(C#N)C2C1 (stereo not drawn)	> 100 µM (inactive)	> 100 µM (inactive)	> 100 µM (inactive)		> 100 µM (inactive)	> 100 µM (inactive)	> 100 µM (inactive)	> 100 µM (inactive)	> 100 µM (inactive)
Cc1cc([N+](=O)[O-])c(C)c2c1[nH]c1ccc(/C(CCC3CCCC3)=N\N)cc12	19 µM (inactive)			14.7 µM (inactive)	20.2 µM (inactive)	36.5 µM (inactive)	11 µM (inactive)	17.6 µM (inactive)	
CC(=O)Nc1ccc(-c2nnc(SCC(=O)Nc3ccccc3Cl)o2)cc1	> 100 µM (inactive)	> 100 µM (inactive)	> 100 µM (inactive)		> 100 µM (inactive)	> 100 µM (inactive)	87.7 µM (inactive)	> 100 µM (inactive)	
CC(=O)O[C@H]1CC[C@@]2(C)C(CC[C@]3(C)C2CC[C@]2(C)Oc4c(C)cc(O)cc4C[C@@H]23)C1(C)C (stereo partly drawn)	11.9 µM (inactive)	10.4 µM (inactive)	5.5 µM (inactive)		3.65 µM (inactive)	7.52 µM (inactive)	13.5 µM (inactive)	7.1 µM (inactive)	5.16 µM (inactive)
CCOC(=O)C1S/C(=N\c2ccc(OC)c(OC)c2)N=C1C (stereo not drawn)		31.4 µM (inactive)	27 µM (inactive)	29.2 µM (inactive)	38.4 µM (inactive)	48.5 µM (inactive)	> 100 µM (inactive)	28.5 µM (inactive)	47.6 µM (inactive)
O=C(O)/C(=C/c1ccccc1[N+](=O)[O-])c1cccs1	> 100 µM (inactive)	> 100 µM (inactive)	> 100 µM (inactive)	> 100 µM (inactive)	> 100 µM (inactive)	> 100 µM (inactive)	> 100 µM (inactive)		> 100 µM (inactive)
CC12CC(Sc3ccccc3N1)c1ccccc1O2 (stereo not drawn)	16.7 µM (inactive)	15.2 µM (inactive)	18.4 µM (inactive)	16.3 µM (inactive)	16.3 µM (inactive)	16.5 µM (inactive)	14.1 µM (inactive)	15.6 µM (inactive)	15.1 µM (inactive)
O=C1/C=C(/c2ccc(O)cc2)[C@@H](OC2OC(CO)C(O)C(O)C2O)Cc2ccc(O)cc2O1.O=C1/C=C(/c2ccc(O)cc2)[C@H](O)Cc2ccc(O[C@@H]3OC(CO)C(O)C(O)C3O)cc2O1 (stereo partly drawn)	> 100 µM (inactive)	> 100 µM (inactive)	> 100 µM (inactive)			> 100 µM (inactive)		> 100 µM (inactive)	> 100 µM (inactive)
C=C1C(=O)O[C@H](c2ccoc2)C[C@@H]1[C@@]1(C)CCCC2(C)C(=O)OCC21 (stereo partly drawn)	> 100 µM (inactive)		> 100 µM (inactive)	> 100 µM (inactive)	> 100 µM (inactive)	> 100 µM (inactive)		> 100 µM (inactive)	
